These results are taken from the SangsterLogP compilation.

In general, logP refers to the decadic logarithm of the partition coefficient of the neutral form, usually between octanol and water.

Test in the first series: not given
With `CCCCCF`, the logP is 2.33.

With `CCCBr`, the logP came out at 2.1.

`CCOC(=O)CC` registered a logP of 1.21.

A further series in a line: method code SF-CR, from DOI: 10.1021/jo01283a049.
`CCCC(N)=O`: the logP is -0.21.

The next series can be described thus: method code SF-AS, from DOI: 10.1021/jo01283a049.
In the case of `CNC(=S)Nc1ccccc1`, the lipophilicity (logP) turned out to be 0.85.

`CN(C(N)=S)c1ccccc1`: the logP was determined as 0.85.

As for `CC12CCC(C(=O)C1=O)C2(C)C` (stereo not given), the logP is 1.52.

`OCc1ccc2c(c1)OCO2` yielded a logP of 1.05.

Regarding `CCSCC`, the logP is 1.95.

Compound `c1ccc2cnccc2c1` came in with a logP of 2.08.
